PMC9817974, “Pharmacokinetic Basis for Using Saliva Matrine Concentrations as a Clinical Compliance Monitoring in Antitumor B Chemoprevention Trials in Humans” (Cancers, 2022)
Values joined by “and” are separate entries in the source; they are usually repeats but may differ in a detail not shown here. Equal values may be shown once. Read-outs that look alike come from different tables or passages of the source.

What was measured:
[1] = Sample stability of ATB components (bench, freeze-thaw, short-term, long-term); type: physicochemical; conditions: in % (unit assumed)
Procedure: samples for calibration were prepared. The study and QC samples were prepared on the same day as the UPLC-MS/MS analysis was done.
Calibration curves were prepared the same way as described in section S1.2.2. The linearity of each calibration curve was determined by plotting the peak area ratio of Matr, Maac, Dict, and Frax to I.S. in plasma. […] The lower limit of […] was defined based on a signal-to-noise ratio of 10:1.
S1.2.4 Extraction recovery and matrix effect
The extraction recoveries of Matr, Maac, Dict, and Frax were determined by comparing the relative peak areas obtained from blank plasma spiked with analytes and those obtained from water spiked with the same amounts of analytes. Matrix effect was determined by comparing the peak areas of blank plasma extracts spikes with analytes and I.S. with those of the standard solutions dried and reconstituted with mobile phase. The quality control samples were prepared in plasma.
Bench work (25°C for 4 hours), short-term (-20°C for 7 days), long-term (-80°C for 4 months) and three freeze-thaw cycle stabilities were determined.

[2] = design: method as in ref [3] of Supplement S4 (Bui et al.); conditions: mice; ref [3] of Supplement S4 (Bui et al.); cited from earlier work
[3] = design: method as in Bui et al. [9]; conditions: ref Bui et al. [9]; cited from earlier work
[4] = Stability of ATB tablets (ICH storage conditions)
Procedure: Two independent batches of ATB tablets were tested according to International Conference on Harmonization (ICH) Guideline for long-term (12 months at 25 ± 2 °C/60 ± 5% RH), intermediate (6 months at 30 ± 2 °C/65 ± 5% RH), and accelerated (40 ± 2 °C/75 ± 5% RH) stability [12].

[5] = design: method as in Gao et al. [11]; conditions: plasma; 1.2 g ATB (equal to 4.8 mg Matr); ref Gao et al. [11]; cited from earlier work
[6] = Sample stability of ATB components (bench, freeze-thaw, short-term, long-term); type: physicochemical; conditions: in % (unit assumed); remark: listed apart in the source
[7] = Single-dose oral pharmacokinetic study of ATB tablets in healthy human subjects (plasma and saliva, non-compartmental analysis); type: in vivo; conditions: for AUC(0-t) / Cmax / Tmax / half-life / Kp: both sexes, human, po; for Kp: saliva and plasma; for inter-subject variability of systemic exposure (AUC): n = 8
Procedure: In addition, in vivo correlation between plasma and saliva concentrations was determined as the secondary outcome.
The ratio of drug concentration in plasma and saliva were calculated using Equations (1) and (2). (1) RCmax=Cmax saliva/Cmax plasma (2) RAUC=AUC0–24 saliva/AUC0–24 plasma […]
S2.1. Human Pharmacokinetic Study Design
The study was conducted in two phases. Two self-volunteered subjects participated in the study […]
Participants refrained from consumption of […]
dosing blood and saliva samples were collected. Each participant received single-dose oral […]
saliva sample kit for salivary collection. Plasma samples were then collected by centrifugation of […]
hour post-administration. […]
administration. […] Throughout the […]
collected and saline lock was removed. Participants returned the next day morning for 24-hour […]
Participants fasted 8-12 hours before each

[8] = design: method as in Gao et al. [11]; conditions: blood/plasma ratio; ref Gao et al. [11]; cited from earlier work
[9] = average of 8 healthy volunteers, single oral dose 2400 mg ATB
[10] = average of 8 healthy volunteers, single oral dose 2400 mg ATB, plasma
[11] = average of 8 healthy volunteers, single oral dose 2400 mg ATB, saliva
[12] = individual subjects, single oral dose 2400 mg ATB (8 tablets)
[13] = individual subjects, single oral dose 2400 mg ATB (8 tablets), plasma
[14] = individual subjects, single oral dose 2400 mg ATB (8 tablets), saliva

Structure (SMILES): O=C1CCC[C@@H]2[C@H]3CCCN4CCC[C@@H](CN12)[C@@H]34 [matrine]
- Stability, 3 cycles freeze-thaw ([1]; HQC concentration level): 99.1 ± 6.7
- Stability, Bench work (4 hrs, 25 oC) ([1]; HQC concentration level): 103.1 ± 2.6
- Stability, Short-term (7 days, -20 oC) ([1]; HQC concentration level): 88.3 ± 6.6
- Stability, 3 cycles freeze-thaw ([1]; LOQ concentration level): 109.6 ± 1.3
- Stability, 3 cycles freeze-thaw ([1]; MQC concentration level): 93.7 ± 3.4
- Stability, Bench work (4 hrs, 25 oC) ([1]; MQC concentration level): 85.8 ± 8.9
- bioavailability [2]: 2.4 ± 1.2%
- First pass effect [3]: 26.00%
- remaining percentage in ATB tablets, Long term 3 months ([4]; 25 ± 2 °C/60 ± 5% RH): 89.1 ± 2.7%
- remaining percentage in ATB tablets, Long term 6 months ([4]; 25 ± 2 °C/60 ± 5% RH): 93.9 ± 2.1%
- remaining percentage in ATB tablets, Long term 12 months ([4]; 25 ± 2 °C/60 ± 5% RH): 89.6 ± 0.8%
- remaining percentage in ATB tablets, Intermediate 3 months ([4]; 30 ± 2 °C/65 ± 5% RH): 89.6 ± 0.5%
- remaining percentage in ATB tablets, Intermediate 6 months ([4]; 30 ± 2 °C/65 ± 5% RH): 92.1 ± 3.6%
- remaining percentage in ATB tablets, Accelerated term 3 months ([4]; 40 ± 2 °C/75 ± 5% RH): 87.0 ± 5.0%
- remaining percentage in ATB tablets, Accelerated term 6 months ([4]; 40 ± 2 °C/75 ± 5% RH): 99.4 ± 3.2%
- AUC0-T Human Subjects Observed [5]: 412.2 ng·h/mL
- Cmax Human Subjects Observed [5]: 29.7 ng/mL
- Tmax Human Subjects Observed [5]: 3.0 h
- Stability, Long-term (6 months, -80 oC) ([6]; HQC concentration level): 94.6 ± 6.7
- Stability, Bench work (4 hrs, 25 oC) ([6]; LOQ concentration level): 110.5 ± 18.0
- Stability, Long-term (6 months, -80 oC) ([6]; LOQ concentration level): 96.2 ± 0.6
- Stability, Short-term (7 days, -20 oC) ([6]; LOQ concentration level): 86.6 ± 3.8
- Stability, Long-term (6 months, -80 oC) ([6]; MQC concentration level): 105.8 ± 3.8
- Stability, Short-term (7 days, -20 oC) ([6]; MQC concentration level): 85.7 ± 8.7
- AUC0–24 Saliva/Plasma Ratio [7, 9]: 4.8 ± 1.7
- Cmax Saliva/Plasma Ratio [7, 9]: 6.4 ± 1.8
- AUC0–24 Plasma [7, 10]: 278.34 ± 84.90 ng·h/mL
- Half-Life Plasma [7, 10]: 10.38 ± 3.83 h
- Tmax Plasma [7, 10]: 2.16 ± 0.69 h
- AUC0–24 Saliva [7, 11]: 1302.37 ± 459.28 ng·h/mL
- Half-Life Saliva [7, 11]: 12.37 ± 7.01 h
- Tmax Saliva [7, 11]: 1.56 ± 0.82 h
- AUC(0-t) ([7]; plasma, 2.6 mg, plasma, 2.6 mg Matr p.o. (8 ATB tablets), read-out: AUC0-T Healthy Volunteers Observed): 278 ng·h/mL
- Cmax ([7]; plasma, 2.6 mg, plasma, 2.6 mg Matr p.o. (8 ATB tablets), read-out: Cmax Healthy Volunteers Observed): 25.2 ng/mL
- Tmax ([7]; plasma, 2.6 mg, plasma, 2.6 mg Matr p.o. (8 ATB tablets), read-out: Tmax Healthy Volunteers Observed): 2.2 h
- AUC(0-t) ([7]; plasma, 2400 mg, average of 8 healthy volunteers, single oral dose 2400 mg ATB, plasma, read-out: AUC0–24 Plasma): 266 ± 80 ng·h/mL
- Cmax ([7]; plasma, 2400 mg, average of 8 healthy volunteers, single oral dose 2400 mg ATB, plasma, read-out: Cmax Plasma): 25.2 ± 3.82 ng/mL
- half-life ([7]; plasma, 2400 mg, average of 8 healthy volunteers, single oral dose 2400 mg ATB, plasma, read-out: Half-Life Plasma (converted)): 10 ± 2.8 h
- Tmax ([7]; plasma, 2400 mg, average of 8 healthy volunteers, single oral dose 2400 mg ATB, plasma, read-out: Tmax Plasma): 2 ± 0.6 h
- Cmax ([7]; plasma, 2400 mg, individual subjects, single oral dose 2400 mg ATB (8 tablets), plasma, read-out: Cmax Plasma): 22.8 ng/mL
- Kp ([7]; 2400 mg, average of 8 healthy volunteers, single oral dose 2400 mg ATB, read-out: AUC0–24 Saliva/Plasma Ratio): 4.8 ± 2
- Kp ([7]; 2400 mg, average of 8 healthy volunteers, single oral dose 2400 mg ATB, read-out: Cmax Saliva/Plasma Ratio): 6.4 ± 1.4
- AUC(0-t) ([7]; saliva, 2400 mg, average of 8 healthy volunteers, single oral dose 2400 mg ATB, saliva, read-out: AUC0–24 Saliva): 1210 ± 399 ng·h/mL
- Cmax ([7]; saliva, 2400 mg, average of 8 healthy volunteers, single oral dose 2400 mg ATB, saliva, read-out: Cmax Saliva): 153 ± 53.5 ng/mL
- half-life ([7]; saliva, 2400 mg, average of 8 healthy volunteers, single oral dose 2400 mg ATB, saliva, read-out: Half-Life Saliva (converted)): 13.4 ± 6.9 h
- Tmax ([7]; saliva, 2400 mg, average of 8 healthy volunteers, single oral dose 2400 mg ATB, saliva, read-out: Tmax Saliva): 1.5 ± 0.9 h
- AUC0–24 Saliva/Plasma Ratio [7, 12]: 8.57 and 4.71 and 2.86 and 4.68 and 4.61 and 4.14 and 4.81 and 3.93
- Cmax Saliva/Plasma Ratio [7, 12]: 6.73 and 5.60 and 3.26 and 5.12 and 7.05 and 7.41 and 7.27 and 9.08
- AUC0–24 Plasma [7, 13]: 173.50 ng·h/mL and 240.73 ng·h/mL and 295.05 ng·h/mL and 228.16 ng·h/mL and 408.92 ng·h/mL and 247.39 ng·h/mL and 428.83 ng·h/mL and 231.84 ng·h/mL
- Cmax Plasma [7, 13]: 22.70 ng/mL and 28.06 ng/mL and 23.60 ng/mL and 28.56 ng/mL and 21.28 ng/mL and 31.91 ng/mL and 22.48 ng/mL
- Half-Life Plasma [7, 13]: 6.99 h and 8.43 h and 15.12 h and 17.06 h and 10.66 h and 9.84 h and 6.29 h and 8.65 h
- Tmax Plasma [7, 13]: 3 h and 3.3 h and 1 h
- AUC0–24 Saliva [7, 14]: 1487.35 ng·h/mL and 1133.48 ng·h/mL and 845.11 ng·h/mL and 1067.94 ng·h/mL and 1884.98 ng·h/mL and 1024.67 ng·h/mL and 2064.14 ng·h/mL and 911.28 ng·h/mL
- Cmax Saliva [7, 14]: 153.18 ng/mL and 127.11 ng/mL and 91.61 ng/mL and 120.81 ng/mL and 201.34 ng/mL and 157.71 ng/mL and 231.60 ng/mL and 204.07 ng/mL
- Half-Life Saliva [7, 14]: 7.38 h and 9.83 h and 7.59 h and 26.39 h and 18.98 h and 11.13 h and 5.42 h and 12.23 h
- Tmax Saliva [7, 14]: 0.5 h and 1 h and 3 h
- inter-subject variability of systemic exposure (AUC) ([7]; plasma): 30.1%
- inter-subject variability of systemic exposure (AUC) ([7]; saliva): 32.8%
- Rbp [8]: 0.97
